One assay addresses T1, AR (Homo sapiens, UniProt P10275, T878A).
T1 construct: LNCaP cells with endogenous AR; endogenous in cells; host or cells: LNCaP
T1 sequence (P10275 1-920 T878A): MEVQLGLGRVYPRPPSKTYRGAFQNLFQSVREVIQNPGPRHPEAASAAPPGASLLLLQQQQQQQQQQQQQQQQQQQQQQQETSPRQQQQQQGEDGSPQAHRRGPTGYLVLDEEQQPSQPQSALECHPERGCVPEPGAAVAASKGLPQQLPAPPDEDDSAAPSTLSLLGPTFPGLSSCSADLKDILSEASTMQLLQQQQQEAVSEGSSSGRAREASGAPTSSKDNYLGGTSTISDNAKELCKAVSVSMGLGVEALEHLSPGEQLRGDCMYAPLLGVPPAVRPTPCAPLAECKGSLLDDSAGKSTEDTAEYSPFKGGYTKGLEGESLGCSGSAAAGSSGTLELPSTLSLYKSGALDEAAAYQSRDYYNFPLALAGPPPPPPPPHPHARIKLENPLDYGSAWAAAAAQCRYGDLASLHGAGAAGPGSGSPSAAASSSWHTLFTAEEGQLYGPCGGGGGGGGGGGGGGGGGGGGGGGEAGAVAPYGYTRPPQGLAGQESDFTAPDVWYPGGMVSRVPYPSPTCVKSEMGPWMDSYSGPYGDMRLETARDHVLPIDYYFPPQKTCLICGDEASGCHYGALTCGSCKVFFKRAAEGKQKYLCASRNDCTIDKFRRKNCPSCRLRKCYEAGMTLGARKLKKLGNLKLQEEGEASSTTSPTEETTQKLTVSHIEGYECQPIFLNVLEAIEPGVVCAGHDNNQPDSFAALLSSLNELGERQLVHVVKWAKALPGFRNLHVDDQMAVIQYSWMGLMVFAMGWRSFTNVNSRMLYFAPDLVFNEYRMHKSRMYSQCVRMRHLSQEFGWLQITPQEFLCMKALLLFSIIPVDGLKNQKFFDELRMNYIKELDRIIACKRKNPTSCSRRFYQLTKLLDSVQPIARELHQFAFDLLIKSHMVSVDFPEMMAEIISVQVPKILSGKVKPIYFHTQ
Put plainly: PSA(6.1 kb)-luciferase reporter assay in LNCaP cells (androgen-induced AR transcriptional activity). Type of assay: cell-based. As for the experimental part:
The PSA-luciferase (6.1 kb) reporter contains functional AREs to which AR binds in response to androgen to induce luciferase activity. LNCaP cells were transfected with the PSA(6.1 kb)-luciferase reporter for 24 h, and then treated with indicated concentration of 8d (also referred as EPI-iodide or iodinated EPI) with synthetic androgen, R1881 (1 nM) for 24 h. After 24 h of incubation with R1881, the cells were harvested, and relative luciferase activities were determined (FIG. 1A). To determine the IC50, treatments were normalized to the predicted maximal activity induction (in the absence of test compounds, vehicle only) (FIG. 1B).
To measure effect on AR, after the LNCaP cells were transfected with the PSA(6.1 kb)-luciferase reporter for 24 h, they were then treated with DMSO, 5 μM MDV3100, 25 μM Z (also referred to as EPI-002 or EPI), or 1.9 μM 8d with or without 1 nM R1881 for 24 h (FIG. 2A).
LNCaP cells were transiently transfected with PSA (6.1 kb)-luciferase for 24 h prior to pre-treatment with compounds of the invention (e.g., compounds 9d, 10d, 11d) ranging in concentration from 62.5 ng/ml to 1.5 ug/ml for 1 hour before the addition of vehicle, or synthetic androgen, R1881 (1 nM) to induce luciferase production. After 24 h of incubation with R1881, the cells were harvested, and relative luciferase activities were determined. To determine the IC50, treatments were normalized to the predicted maximal activity induction (in the absence of test compounds, vehicle only) (FIG. 1B).

Assay [1] addresses T2, progesterone receptor-beta (PRβ) (Homo sapiens, UniProt P06401).
T2 construct: expression plasmids for full-length human PRβ; expressed in transfected cells; host or cells: LNCaP
T2 sequence (P06401 1-933): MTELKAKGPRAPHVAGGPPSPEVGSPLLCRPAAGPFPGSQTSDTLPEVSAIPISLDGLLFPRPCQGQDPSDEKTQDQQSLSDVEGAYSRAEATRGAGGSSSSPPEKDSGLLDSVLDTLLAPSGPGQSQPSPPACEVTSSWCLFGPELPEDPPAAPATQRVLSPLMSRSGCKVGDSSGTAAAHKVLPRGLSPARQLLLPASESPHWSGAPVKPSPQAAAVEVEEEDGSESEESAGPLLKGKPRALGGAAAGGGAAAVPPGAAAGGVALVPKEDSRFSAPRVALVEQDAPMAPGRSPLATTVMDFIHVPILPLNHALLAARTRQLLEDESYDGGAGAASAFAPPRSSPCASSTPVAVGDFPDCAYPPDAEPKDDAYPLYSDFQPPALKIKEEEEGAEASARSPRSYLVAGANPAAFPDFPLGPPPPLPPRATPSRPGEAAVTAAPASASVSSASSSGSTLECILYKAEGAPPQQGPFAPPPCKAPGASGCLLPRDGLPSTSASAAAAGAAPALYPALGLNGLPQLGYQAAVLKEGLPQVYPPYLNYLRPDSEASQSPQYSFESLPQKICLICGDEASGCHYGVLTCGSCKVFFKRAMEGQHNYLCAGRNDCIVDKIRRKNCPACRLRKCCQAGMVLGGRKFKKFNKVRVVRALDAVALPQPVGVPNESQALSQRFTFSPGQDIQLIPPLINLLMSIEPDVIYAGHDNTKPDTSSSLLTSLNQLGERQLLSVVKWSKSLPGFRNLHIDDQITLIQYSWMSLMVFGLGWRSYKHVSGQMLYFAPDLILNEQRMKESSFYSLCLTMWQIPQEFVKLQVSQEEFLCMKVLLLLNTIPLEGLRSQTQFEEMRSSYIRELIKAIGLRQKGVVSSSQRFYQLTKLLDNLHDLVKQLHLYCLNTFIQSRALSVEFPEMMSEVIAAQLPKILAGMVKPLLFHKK
Briefly: PRE-luciferase reporter assay in LNCaP cells cotransfected with full-length human PRβ. It counts as cell-based. The conditions noted are these: 1.9 μM 8d, 10 nM progesterone, 24 h, LNCaP cells (FIG. 2B). Here is the method: To assess specificity for the AR, parallel experiments were performed in LNCaP cells with endogenous AR and ectopic expression of other closely related human hormone receptors such as the progesterone receptor-beta (PRβ), glucocorticoid receptor (GR) and estrogen receptor-α (ER).
LNCaP cells were cotransfected with the expression plasmids for full-length human PRβ and the relative reporter (PRE-luciferase) for 24 h, and then treated with DMSO, 5 μM MDV3100, 25 μM Z, or 1.9 μM 8d with or without 10 nM progesterone for 24 h (FIG. 2B). Compound 8d had no effect on the transcriptional activity of closely related PRβ.
For orientation: A reporter such as luciferase makes a cellular process visible.

Consider `CC(C)(c1ccc(OC[C@H](O)CO)cc1)c1ccc(OC[C@H](O)CCl)c(I)c1` [Compound 8d, (R)-3-(4-(2-(4-((S)-3-chloro-2-hydroxypropoxy)-3-iodophenyl)propan-2-yl)phenoxy)propane-1,2-diol], for which the “androgen-induced PSA luciferase activity” value on AR (1.9 μM 8d, 1 nM R1881, 24 h, LNCaP cells (FIG. 2A)) is “strongly inhibited”. The IC50 (as a rule, the concentration needed to halve the response being measured) at AR (LNCaP cells, PSA(6.1 kb)-luciferase, R1881 1 nM 24 h, representative experiment, read-out: IC50 for inhibition of AR transcriptional activity) was determined as 1.17 ± 0.22 µM. Also, the “transcriptional activity of PRβ (PRE-luciferase)” value in assay [1] is “no effect”.
